Molecular target: EP4 (Homo sapiens, UniProt P35408)
Test: EP4 Antagonism by CRE-PLAP Reporter Assay (SE302 cells, PGE2-stimulated)
Assay type: cell-based
Parameters: HEK293 cells express endogenous EP4; endogenous in cells; host or cells: SE302 (HEK293 clone with CRE-PLAP reporter)
Conditions: SE302 (HEK293) cells, 3 ng/mL PGE2, overnight; single or multiple assay average values
Text: PGE2 and [^3H]-labelled PGE2 were purchased from Cayman Chemical (Ann Arbor, Mich.) and Perkin Elmer (Waltham, Mass.), respectively. Mouse breast 4T1 cells (CRL-2539) were obtained from American Tissue Culture Collection. SE302 cell line is a clone of the HEK293 cells containing cAMP response element (CRE) promoter that when activated drives secretion of placental-like alkaline phosphatase (PLAP). HEK293 cells express endogenous EP4 and show induction of PLAP in response to PGE2 and EP4 agonists, but not EP1, 2 or 3 agonists (Chen Q, Muramoto K, Masaaki N, Ding Y, Yang H, Mackey M, Li W, Inoue Y, Ackermann K, Shrota H, Matsumoto I, Spyvee M, Schiller S, Sumida T, Gusovsky F, and Lamphier M. A novel antagonist of the prostaglandin E2 EP4 receptor inhibits Th1 differentiation and Th17 expansion and is orally active in arthritis models. British J Pharmacol, 2010, 160: 292-310). BalB/C female mice at 7-8 week age were purchased from Jackson Laboratory (Bar Harbor, Me.). Mice were maintained under specific pathogen-free conditions.
EP4 Antagonism by CRE-PLAP Reporter Assay: SE302 cells were maintained in DMEM/F12 (50:50) (MediaTech) supplemented with 10% FBS (Tissue Culture Biologicals) plus penicillin/streptomycin. When used for assays, cells were plated in a 96-well plate at 2×10^4 cells/100 μL/well in serum-free assay medium (DMEM/F12 supplemented with 0.1% BSA plus penicillin/streptomycin) and incubated for 4-6 h. Cells were then stimulated with 3 ng/mL of PGE2 in the presence or absence of various concentrations of test compound overnight, and PLAP activity was measured by mixing 15 μL of culture supernatants with 75 μL of Lumi-phos (Lumigen, Inc.) and 60 μL of assay buffer containing 8 mmol/L MgSO4 in 0.1 mol/L carbonate-bicarbonate buffer pH11 in a new 96-well black plate and incubated for 2 h at room temperature. The intensity of luminescence, which reflected the PLAP activity in the supernatant, was quantified with an Envision 2101 Multilabel Reader. Values obtained from DMSO treated samples in the presence of PGE2 were defined as 100% of control, whereas values obtained from DMSO treated samples in the absence of PGE2 were defined as 0% of control. % of control for compound treated samples was calculated as follows: (actual reading−0% of control)/(100% of control−0% of control)×100. IC50 value for each individual experiment was calculated using GraphPad Prism 6.02 (Lake Forest, Calif.) with % of control values.
Compounds of the present invention were assayed according to the methods as described above, and IC50 values, which may be single assay values or multiple assay average values, are summarized in Table 1. Compounds marked “ABS” show absolute stereochemistry.

Sequence of EP4 (P35408 whole entry): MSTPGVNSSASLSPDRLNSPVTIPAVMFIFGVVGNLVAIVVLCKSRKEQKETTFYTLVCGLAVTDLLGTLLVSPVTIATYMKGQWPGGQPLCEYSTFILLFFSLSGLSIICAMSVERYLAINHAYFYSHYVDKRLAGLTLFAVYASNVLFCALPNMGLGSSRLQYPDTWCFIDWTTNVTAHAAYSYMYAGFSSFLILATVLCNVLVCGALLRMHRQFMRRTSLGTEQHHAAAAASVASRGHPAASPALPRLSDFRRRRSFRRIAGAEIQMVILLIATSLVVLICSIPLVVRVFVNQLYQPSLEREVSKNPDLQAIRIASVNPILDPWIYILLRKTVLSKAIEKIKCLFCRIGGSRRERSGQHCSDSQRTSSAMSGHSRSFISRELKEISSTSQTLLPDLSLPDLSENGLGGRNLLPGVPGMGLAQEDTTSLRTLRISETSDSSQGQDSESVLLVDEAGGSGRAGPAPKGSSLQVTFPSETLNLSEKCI

| IC50 [nM] | SMILES |
| --- | --- |
| 21.8 | C[C@H](NC(=O)c1c(C(F)(F)F)nn2c1N(Cc1ccc(CCCF)cc1)CC2)c1ccc(C(=O)O)cc1 [Compound 97, (S)-4-(1-(1-(4-(3-fluoropropyl)benzyl)-6-(trifluoromethyl)-2,3-dihydro-1H-imidazo[1,2-b]pyrazole-7-carboxamido)ethyl)benzoic Acid] |
| 27.6 | Cc1nn2c(c1C(=O)NCc1ccc(C(=O)O)cc1)N(Cc1ccc(Cl)cc1)CC2 [Compound 33, 4-((1-(4-chlorobenzyl)-6-methyl-2,3-dihydro-1H-imidazo[1,2-b]pyrazole-7-carboxamido)methyl)benzoic Acid] |
| 5.87 | C[C@H](NC(=O)c1c(C(F)(F)F)nn2c1N(Cc1cccc(C(F)(F)F)c1)CC2)c1ccc(C(=O)NS(=O)(=O)c2ccc([N+](=O)[O-])cc2)cc1 [Compound 71, (S)—N-(1-(4-(((4-nitrophenyl)sulfonyl)carbamoyl)phenyl)ethyl)-6-(trifluoromethyl)-1-(3-(trifluoromethyl)benzyl)-2,3-dihydro-1H-imidazo[1,2-b]pyrazole-7-carboxamide] |
| 91.3 | C[C@H](NC(=O)c1c(C(F)(F)F)nn2c1N(c1ccc(Cl)cc1)CC2)c1ccc(C(=O)O)cc1 [Compound 50, (S)-4-(1-(1-(4-chlorophenyl)-6-(trifluoromethyl)-2,3-dihydro-1H-imidazo[1,2-b]pyrazole-7-carboxamido)ethyl)benzoic Acid] |
| 73 | C[C@H](NC(=O)c1c(C(F)(F)F)nn2c1N(Cc1cccc(C(F)(F)F)c1)CC2)c1ccc(C(=O)NS(=O)(=O)C2CC2)cc1 [Compound 56, (S)—N-(1-(4-((cyclopropylsulfonyl)carbamoyl)phenyl)ethyl)-6-(trifluoromethyl)-1-(3-(trifluoromethyl)benzyl)-2,3-dihydro-1H-imidazo[1,2-b]pyrazole-7-carboxamide] |
| 0.12 | C[C@H](NC(=O)c1c(C(F)(F)F)nn2c1N(Cc1cc(Br)cc(C(F)(F)F)c1)CC2)c1ccc(C(=O)O)cc1 [Compound 85, (S)-4-(1-(1-(3-bromo-5-(trifluoromethyl)benzyl)-6-(trifluoromethyl)-2,3-dihydro-1H-imidazo[1,2-b]pyrazole-7-carboxamido)ethyl)benzoic Acid] |
| 1.2 | C[C@H](NC(=O)c1c(C(F)(F)F)nn2c1N(Cc1cccc(CF)c1)CC2)c1ccc(C(=O)O)cc1 [Compound 67, (S)-4-(1-(1-(3-(fluoromethyl)benzyl)-6-(trifluoromethyl)-2,3-dihydro-1H-imidazo[1,2-b]pyrazole-7-carboxamido)ethyl)benzoic Acid] |
| 0.07 | C[C@H](NC(=O)c1c(C(F)(F)F)nn2c1N(Cc1cccc(C(F)(F)F)c1)CC2)c1ccc(C(=O)NC#N)cc1 [Compound 52, (S)—N-(1-(4-(cyanocarbamoyl)phenyl)ethyl)-6-(trifluoromethyl)-1-(3-(trifluoromethyl)benzyl)-2,3-dihydro-1H-imidazo[1,2-b]pyrazole-7-carboxamide] |
| 2.23 | CCc1ccc(CN2CCn3nc(C(F)(F)F)c(C(=O)N[C@@H](C)c4ccc(C(=O)O)cc4)c32)cc1 [Compound 20, (S)-4-(1-(1-(4-ethylbenzyl)-6-(trifluoromethyl)-2,3-dihydro-1H-imidazo[1,2-b]pyrazole-7-carboxamido)ethyl)benzoic Acid] |
| 0.84 | C[C@H](NC(=O)c1c(C(F)(F)F)nn2c1N(Cc1ccccc1)CC2)c1ccc(C(=O)O)cc1 [Compound 70, (S)-4-(1-(1-benzyl-6-(trifluoromethyl)-2,3-dihydro-1H-imidazo[1,2-b]pyrazole-7-carboxamido)ethyl)benzoic acid] |
| 2.23 | C[C@H](NC(=O)c1c(C(F)(F)F)nn2c1N(Cc1cccc(Cl)c1)CC2)c1ccc(C(=O)O)cc1 [Compound 12, (S)-4-(1-(1-(3-chlorobenzyl)-6-(trifluoromethyl)-2,3-dihydro-1H-imidazo[1,2-b]pyrazole-7-carboxamido)ethyl)benzoic Acid] |
| 39 | COC(=O)c1ccc([C@H](C)NC(=O)c2c(C(F)(F)F)nn3c2N(C(=O)c2ccccc2F)CC3)cc1 [Compound 102] |
| 1.53 | C[C@H](NC(=O)c1c(C(F)(F)F)nn2c1N(Cc1ccc(Cl)cc1)CCC2)c1ccc(C(=O)O)cc1 [Compound 41, (S)-4-(1-(4-(4-chlorobenzyl)-2-(trifluoromethyl)-4,5,6,7-tetrahydropyrazolo[1,5-a]pyrimidine-3-carboxamido)ethyl)benzoic Acid] |
| 4.26 | C[C@H](NC(=O)c1c(C(F)(F)F)nn2c1N(Cc1cccc(C(F)(F)CO)c1)CC2)c1ccc(C(=O)O)cc1 [Compound 95, (S)-4-(1-(1-(3-(1,1-Difluoro-2-hydroxyethyl)benzyl)-6-(trifluoromethyl)-2,3-dihydro-1H-imidazo[1,2-b]pyrazole-7-carboxamido)ethyl)benzoic Acid] |
| 100 | C[C@H](NC(=O)c1c(C(F)(F)F)nn2c1N(Cc1ccccc1Cl)CCC2)c1ccc(C(=O)O)cc1 [Compound 61, (S)-4-(1-(4-(2-chlorobenzyl)-2-(trifluoromethyl)-4,5,6,7-tetrahydropyrazolo[1,5-a]pyrimidine-3-carboxamido)ethyl)benzoic Acid] |
| 2.85 | C[C@H](NC(=O)c1c(C(F)(F)F)nn2c1N(Cc1ccc(C(F)(F)F)cc1)CC2)c1ccc(C(=O)O)c(F)c1 [Compound 21, (S)-2-fluoro-4-(1-(6-(trifluoromethyl)-1-(4-(trifluoromethyl)benzyl)-2,3-dihydro-1H-imidazo[1,2-b]pyrazole-7-carboxamido)ethyl)benzoic Acid] |
| 1.65 | Cc1ccc(CN2CCn3nc(C(F)(F)F)c(C(=O)N[C@@H](C)c4ccc(C(=O)O)cc4)c32)cc1 [Compound 17, (S)-4-(1-(1-(4-methylbenzyl)-6-(trifluoromethyl)-2,3-dihydro-1H-imidazo[1,2-b]pyrazole-7-carboxamido)ethyl)benzoic Acid] |
| 0.32 | C[C@H](NC(=O)c1c(C(F)(F)F)nn2c1N(Cc1cc(Cl)cc(Cl)c1)CC2)c1ccc(C(=O)O)cc1 [Compound 7, (S)-4-(1-(1-(3,5-dichlorobenzyl)-6-(trifluoromethyl)-2,3-dihydro-1H-imidazo[1,2-b]pyrazole-7-carboxamido)ethyl)benzoic Acid] |
| 6.37 | C[C@H](NC(=O)c1c(C(F)(F)F)nn2c1N(Cc1cc(N(C)C)cc(C(F)(F)F)c1)CC2)c1ccc(C(=O)O)cc1 [Compound 90, (S)-4-(1-(1-(3-(dimethylamino)-5-(trifluoromethyl)benzyl)-6-(trifluoromethyl)-2,3-dihydro-1H-imidazo[1,2-b]pyrazole-7-carboxamido)ethyl)benzoic Acid] |
| 7.08 | C[C@H](NC(=O)c1c(C(F)(F)F)nn2c1N(Cc1ccc(C(F)(F)F)cc1)CC2)c1ccc(CC(=O)O)cc1 [Compound 27, (S)-2-(4-(1-(6-(trifluoromethyl)-1-(4-(trifluoromethyl)benzyl)-2,3-dihydro-1H-imidazo[1,2-b]pyrazole-7-carboxamido)ethyl)phenyl)acetic Acid] |
| 0.68 | CCc1nn2c(c1C(=O)N[C@@H](C)c1ccc(C(=O)O)cc1)N(Cc1cccc(C(F)(F)F)c1)CC2 [Compound 59, (S)-4-(1-(6-ethyl-1-(3-(trifluoromethyl)benzyl)-2,3-dihydro-1H-imidazo[1,2-b]pyrazole-7-carboxamido)ethyl)benzoic acid] |

Reference: patent US11434246B2, “EP4 antagonists” (Eisai R&D Management Co., Ltd., priority 2015, dated 2022)
